The source of these data is article PMC4484790 (Virology, 2014).

A short description of series [1]: PK of orally administered TFV. It counts as in vivo.
The test system of series [2] is HIV. Conditions: Partners PrEP study; oral; serodiscordant couples; ref Baeten et al., 2012; cited from earlier work.
Another series can be described thus: in vivo. Conditions: female, mouse, po, 61.5 mg/kg. Set-up: species or system non-humanized mice.
Series [3] has as its system HIV. Conditions: hu-mice; oral administration at allometric dosing levels; ref Neff et al., 2010; cited from earlier work.
Setting [4] is: female, BALB/c Rag1−/− or Rag2−/−γc−/− (humanized, Hu-HSC RAG-hu), mouse, intestinal tissue, po, 61.5 mg/kg.
Where [5] appears, read: female, BALB/c Rag1−/− or Rag2−/−γc−/− (humanized, Hu-HSC RAG-hu), mouse, plasma, po, 61.5 mg/kg.
[6] abbreviates: female, BALB/c Rag1−/− or Rag2−/−γc−/− (humanized, Hu-HSC RAG-hu), mouse, rectal tissue, po, 61.5 mg/kg.
[7] abbreviates: female, BALB/c Rag1−/− or Rag2−/−γc−/− (humanized, Hu-HSC RAG-hu), mouse, vaginal tissue, po, 61.5 mg/kg.

`CC(Cn1cnc2c(N)ncnc21)OCP(=O)(O)OP(=O)(O)OP(=O)(O)O` (stereo in doubt) [TFV-DP, Tenofovir Diphosphate]: the “AUC24h intestinal:rectal tissue ratio” value in series [1] (hu-mice, TFV oral 61.5 mg/kg x 5 days) is given as 2.45.

As a reminder, the AUC(0-t) is exposure summed from dosing to a finite time, without extrapolation to infinity. By Tmax is commonly meant the time from dosing to the highest level. A word on the Cmax: it is the maximum level reached in the sampled fluid or tissue. As usually defined, the half-life is the time needed for the level to fall by half in the phase considered. For `C[C@H](Cn1cnc2c(N)ncnc21)OCP(=O)(O)O` [TFV, Tenofovir], in the series on HIV [2], the “reduction in HIV-1 incidence” value is on record as 67%. Also, the AUC(0-t) in the series “in vivo” was determined as 17300 ng·h/mL; in series [1] (female, BALB/c Rag1−/− or Rag2−/−γc−/− (humanized, Hu-HSC RAG-hu), mouse, in vivo, po, 61.5 mg/kg), 11300 ng·h/mL. Further, the Tmax in “in vivo” is 8 h; in series [1] (setting [4]), 2 h; in series [1] (setting [5]), 2 h; in series [1] (setting [6]), 2 h; in series [1] (setting [7]) it was 2 h. In addition, the Cmax was 1550 ng/mL in “in vivo” (Cmax (median)) and 1990 ng/mL in series [1] (female, BALB/c Rag1−/− or Rag2−/−γc−/− (humanized, Hu-HSC RAG-hu), mouse, in vivo, po, 61.5 mg/kg, Cmax (median)). The half-life in series [1] (setting [4]) is 13.9 h; in series [1] (setting [5]) it was 17 h; in series [1] (setting [6]), 13.5 h; in series [1] (setting [7]) it was 9 h.

Maraviroc [MVC]: the “protection against HIV vaginal challenge” value in the series with HIV [3] is “fully protective”.
